# From US5356775A, “Primary structure for functional expression from complementary DNA of a mammalian ATP-sensitive potassium channel” (Brigham & Women's Hospital, priority 1992, dated 1994)
# Entries after “also recorded” stand apart in the source; their conditions may differ.
# Tests used:
# ROMK1 K+ channels = molecular target: T1, ROMK1 K+ channels (Rattus norvegicus, UniProt P35560); test: Single channel patch clamp recording, inside-out patches excised from ROMK1 mRNA-injected Xenopus oocytes; assay type: cell-based
# T1 construct: This coding region encodes a protein of 391 amino acids; expressed in transfected cells; host or cells: Xenopus laevis oocytes injected with cRNA transcribed in vitro from ROMK1 cDNA (pSPORT1)
# T1 sequence (P35560 1-391): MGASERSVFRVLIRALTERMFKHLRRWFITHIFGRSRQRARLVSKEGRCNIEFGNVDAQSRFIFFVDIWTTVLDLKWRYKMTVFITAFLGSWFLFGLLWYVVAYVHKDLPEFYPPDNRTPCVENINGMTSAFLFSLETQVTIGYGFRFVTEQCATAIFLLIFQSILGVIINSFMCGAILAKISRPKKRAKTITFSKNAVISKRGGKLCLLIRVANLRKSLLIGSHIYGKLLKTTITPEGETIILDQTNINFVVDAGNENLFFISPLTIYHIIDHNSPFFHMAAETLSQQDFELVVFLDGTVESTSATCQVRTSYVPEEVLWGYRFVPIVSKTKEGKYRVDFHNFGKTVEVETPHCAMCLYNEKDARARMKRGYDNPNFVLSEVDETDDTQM
# Protocol: FIG. 2. Single channel characteristics of ATP-sensitive ROMK1 K^+ channels expressed in Xenopus oocytes. Channel activities were recorded in inside-out patches excised from oocyte membranes.
# Changes made in bath solution ATP concentration are indicated above the current recording: ATP-free (solid line), 0.025 mM ATP (dashed line). Recordings were taken at VH =-80 mV. Interruptions were introduced into the recording shown in order to display the entire current tracing. Expanded current tracings taken from the continuous recording are indicated by numbers and arrowheads.
# (E) The inhibitory effect of 2.5 mM ATP on channel activity. Changes in bath solution ATP concentration are indicated above the current recording; 0.025 mM ATP (dashed line), 2.5 mM ATP (solid line). […] The recording was taken at VH =-40 mV. Expanded current tracings taken from the recording at various time intervals are indicated by arrows and numbers. The pipette solution contained (mM): 150 or 50 KCl, 1 CaCl2, 1 MgCl2, 5 HEPES (pH 7.4). The bath solution contained (mM): 0,0.025 or 2.5 MgATP, 150 KCl, 1 MgCl2 , 5 EGTA, 5 HEPES (pH 7.4).
# Single channel recordings were obtained in oocytes injected with ROMK1 mRNA following vitelline membrane removal using standard patch clamp techniques to further characterize the properties of ROMK1 K^+ currents (FIG. 2). […] At negative membrane potentials, the amplitude of inward currents increased linearly with increasing hyperpolarization relative to Erev (Erev =O mV for symmetrical K^+ solutions). […] Similar inwardly rectifying currents were also observed in the cell-attached patch configuration. The K^+ selectivity of these currents was confirmed by varying the pipette solution K^+ concentration ([K^+ ]ext). Reversal potentials obtained with pipette solutions containing either 150 mM KCl or 50 mM KCl+100 mM NaCl were in complete agreement with the Nernstian predictions for Erev under these conditions (FIGS. 2B, 2C); the permeability ratio (PNa /PK) of 0.025 for these channels indicates high K^+ selectivity. […] Epithelial KATP channels (classified as Type 3) present in renal tubular cells from the thick ascending limb of Henle and the conical collecting duct (Bliech et al., Pflugers Arch. 415:449 (1990); Wang et al., Am. J. Physiol. 258:F244 (1990); Wang et al., Am. J. Physiol. 259:F494 (1990)) have single conductances of ~25-60 pS and share similar characteristics.
# The effect of intracellular ATP on ROMK1 currents was also investigated using the inside-out patch configuration. […] In contrast, channel activity was routinely maintained for 30 minutes or longer by excision of patches directly into a bath solution containing 25 μM MgATP. […] Channels with these properties and electrophysiological characteristics were never observed in either cell-attached or inside-out patches from H2 O-injected control oocytes; in contrast, several channels of this type were typically active in patches from ROMK1 mRNA-injected oocytes. The incidence of ROMK1 channels in patches was 94% (63 of 67 patches) which was consistent with the high channel density observed in these experiments. […] In channels of both types, channel rundown rapidly occurs in excised membrane patches; this loss of channel activity is reversed or prevented, at least partially, by the addition of MgATP (Ashcroft et al., Cellular Signalling 2:197 (1990); Ashcroft, F. M., Ann. Rev. Neurosci. 11:97 (1988); Nichols et al., Am. J. Physiol. 261:H1675 (1991); Wang et al., J. Gen. Physiol. 98:35 (1991)).
# [1] = molecular target: renal Type 3 KATP channels; settings: read-out: Ki of intracellular ATP; cited from earlier work
# [2] = tested on: Type 1 channels in pancreatic β-cells; settings: read-out: Ki of intracellular ATP; cited from earlier work
# [3] = molecular target: Type 1 channels in cardiac myocytes; settings: read-out: Ki of intracellular ATP; cited from earlier work
# [4] = molecular target: Type 2 KATP channels (central neurons); settings: central neurons (e.g. ventromedial hypothalamic nucleus), read-out: Ki of ATP; cited from earlier work
# ROMK1 = molecular target: T2, ROMK1 (Rattus norvegicus, UniProt P35560); test: Two-electrode voltage clamp of Xenopus oocytes injected with ROMK1 mRNA; assay type: cell-based; settings: 10 mM, [K+]ext = 50 mM, test potentials -60 to 0 mV
# T2 construct: This coding region encodes a protein of 391 amino acids; expressed in transfected cells; host or cells: Xenopus laevis oocytes injected with cRNA transcribed in vitro from ROMK1 cDNA (pSPORT1)
# T2 sequence (P35560 1-391): T1 sequence (P35560 1-391)
# Protocol: (E) Representative current tracings in oocytes injected with ~0.3 ng ROMK1 mRNA or H2 O evoked by 450 ms test pulses from a VH =-45 mV to test potentials from -60 mV to 0 mV in 20 mV increments in the presence or absence of 10 mM Ba2+, [K+ ]ext =50 mM. ROMK1 currents were blocked by 10 mM Ba^2+ at the test potentials used.
# (§1) Size-fractionated mRNA with a size of ~2-3 kb yielded a highly augmented mean inward IK(Ba) sixteen-fold greater than that of H2 O-injected controls when injected into oocytes (FIG. 1D) and was therefore used to construct a directional cDNA library in the vector pSPORT1. RNA transcribed in vitro from pooled clones using T7 RNA polymerase was injected into Xenopus oocytes and tested for IK(Ba) currents using two-electrode voltage clamping. Functional screening of cRNA led to the identification of a 2.1 kb cDNA, ROMK1.
# [5] = tested on: Ba2+-sensitive potassium currents (IK(Ba)) expressed from rat kidney ISOM poly(A)+ RNA; test: Two-electrode voltage clamp of Xenopus oocytes injected with rat kidney ISOM poly(A)+ RNA; assay type: cell-based; settings: 5 mM Ba2+, [K+]ext = 50 mM, test potentials -80 to 0 mV
# Protocol: (A) Representative current tracings evoked by 450 ms voltage steps ranging from -80 mV to 0 mV in 20 mV increments from a holding potential (VH) of -60 mV in oocytes injected with ~25 ng ISOM poly(A)^+ RNA or 50 nl H2 O [K^+ ]ext =50 mM.
# (B) Current-voltage relationships of IK(Ba) in a representative ISOM poly(A)^+ RNA-injected oocyte ( ) and a H2 O-injected control (.circle.). […] Both current amplitudes and Vm were measured 75 ms after initiation of test pulses; Ba^2+ -sensitive current (KK(Ba)) amplitudes were obtained by determining the difference in current amplitudes before and after the addition of 5 mM Ba^2+ at each test potential and plotted as a function of observed Vm.
# as §1
structure (smiles),measurement,setting,value
Nc1ncnc2c1ncn2[C@@H]1O[C@H](COP(=O)(O)OP(=O)(O)OP(=O)(O)O)[C@@H](O)[C@H]1O [ATP],effect on channel activity of high ATP at the cytosolic face of inside-out patches,"ROMK1 K+ channels; 1.0-2.5 mM ATP, patches initially excised into bath containing 25 μM ATP",rapid and marked inhibition of channel activity
same,effect of 2.5 mM ATP on channel activity,"ROMK1 K+ channels; ATP raised from 0.025 mM to 2.5 mM by puffer pipette, VH = -40 mV",inhibition of channel activity
same,restoration of channel activity following channel rundown,ROMK1 K+ channels; readdition of 25 μM (0.025 mM) ATP after ATP-free bath,Partial restoration of channel activity; also recorded: channel recovery
same,reversibility of inhibition by ATP,ROMK1 K+ channels; wash-out of the high ATP-containing solution,reversible
same,Ki,[1],200 to 500 µM
same,Ki,[2],10 to 20 µM
same,Ki,[3],17 to 100 µM
same,Ki,[4],2000 to 3000 µM
[Ba+2] [Ba^2+],inhibition (block) of ROMK1 currents,ROMK1,blocked
same,inhibition of currents expressed in RNA-injected oocytes,[5],marked inhibition
Nc1ncnc2c1ncn2[C@@H]1O[C@H](COP(=O)(O)OP(=O)(O)OP(=O)(O)O)[C@@H](O)[C@H]1O [MgATP],time channel activity was maintained in excised patches,ROMK1 K+ channels; patches excised directly into bath solution containing 25 μM MgATP,≥ 30 min
CC[N+](CC)(CC)CC [TEA^+],inhibition (block) of ROMK1 currents,ROMK1,no inhibition
